Source: patent US20160060260A1, “BROMODOMAIN INHIBITORS FOR TREATING DISEASE” (Board of Regents, The University of Texas System, priority 2014, published 2016)

Molecular target: T1, Recombinant human His-tagged Trim24-PHD-bromodomain (Homo sapiens, UniProt O15164)
T1 construct: Recombinant human His-tagged Trim24-PHD-bromodomain (produced in-house); made in house
T1 sequence (O15164 824-1006 limits assumed): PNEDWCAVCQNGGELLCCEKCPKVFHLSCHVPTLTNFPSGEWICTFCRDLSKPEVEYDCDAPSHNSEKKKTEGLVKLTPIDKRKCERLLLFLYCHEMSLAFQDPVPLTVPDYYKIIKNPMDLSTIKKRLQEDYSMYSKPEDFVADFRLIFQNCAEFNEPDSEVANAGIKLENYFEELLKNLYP
Assay: Trim24 AlphaScreen Assay
Assay type: binding
Details: 5 nM Trim24 protein, 15 nM biotinylated H3K23ac (1-33aa) peptide
Outline: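 His-tagged Trim24-PHD-bromodomain, biotinylated H3K23ac (1-33aa) peptide and compound incubated 1 h at room temperature in 50 mM Hepes pH 7.5, 100 mM NaCl, 0.12 mM Triton X-100.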

IC50 [nM] | SMILES
100 to 1000 | C=CCOc1cccc(Oc2cc3c(cc2NS(=O)(=O)c2ccc(OC)c(NC(C)=O)c2)n(C)c(=O)n3C)c1 [Example 143, N-(5-(N-(6-(3-(allyloxy)phenoxy)-1,3-dimethyl-2-oxo-2,3-dihydro-1H-benzo[d]imidazol-5-yl)sulfamoyl)-2-methoxyphenyl)acetamide]
100 to 1000 | Cn1cnc(S(=O)(=O)Nc2cc3c(cc2Oc2cccc(OCC(C)(C)O)c2)n(C)c(=O)n3C)c1 [Example 238, N-{6-[3-(2-hydroxy-2-methylpropoxy)phenoxy]-1,3-dimethyl-2-oxo-2,3-dihydro-1H-1,3-benzodiazol-5-yl}-1-methyl-1H-imidazole-4-sulfonamide]
10 to 100 | CCCOc1cc(Oc2cc3c(cc2NS(=O)(=O)c2cn(C)cn2)n(C)c(=O)n3C)ccc1F [Example 105, N-(6-(4-fluoro-3-propoxyphenoxy)-1,3-dimethyl-2-oxo-2,3-dihydro-1H-benzo[d]imidazol-5-yl)-1-methyl-1H-imidazole-4-sulfonamide]
100 to 1000 | CCCOc1cc(OCCCOC)cc(Oc2cc3c(cc2NS(=O)(=O)c2cccc(C(C)C)c2)n(C)c(=O)n3C)c1 [Example 164, 3-isopropyl-N-(6-(3-(3-methoxypropoxy)-5-propoxyphenoxy)-1,3-dimethyl-2-oxo-2,3-dihydro-1H-benzo[d]imidazol-5-yl)benzenesulfonamide]
100 to 1000 | CCCOc1cc(OCCCOC)cc(Oc2cc3c(cc2NS(=O)(=O)c2cccc(CC)c2)n(C)c(=O)n3C)c1 [Example 160, 3-ethyl-N-(6-(3-(3-methoxypropoxy)-5-propoxyphenoxy)-1,3-dimethyl-2-oxo-2,3-dihydro-1H-benzo[d]imidazol-5-yl)benzenesulfonamide]
100 to 1000 | CCCOc1ccc(OC)c(Oc2cc3c(cc2NS(=O)(=O)c2cn(C)cn2)n(C)c(=O)n3C)c1 [Example 113, N-(6-(2-methoxy-5-propoxyphenoxy)-1,3-dimethyl-2-oxo-2,3-dihydro-1H-benzo[d]imidazol-5-yl)-1-methyl-1H-imidazole-4-sulfonamide]
10 to 100 | CCCOc1cc(OCCCOC)cc(Oc2cc3c(cc2NS(=O)(=O)c2cccc(OC)c2)n(C)c(=O)n3C)c1 [Example 151, 3-methoxy-N-(6-(3-(3-methoxypropoxy)-5-propoxyphenoxy)-1,3-dimethyl-2-oxo-2,3-dihydro-1H-benzo[d]imidazol-5-yl)benzenesulfonamide]
10 to 100 | COCCCOc1cc(OCC(F)(F)F)cc(Oc2cc3c(cc2NS(=O)(=O)c2ccc(OC)c(OC)c2)n(C)c(=O)n3C)c1 [Example 195]
10 to 100 | CCCOc1cccc(Oc2cc3c(cc2NS(=O)(=O)c2cccc(OC/C=C/CCCN)c2)n(C)c(=O)n3C)c1 [Example 243, (E)-3-((6-aminohex-2-en-1-yl)oxy)-N-(1,3-dimethyl-2-oxo-6-(3-propoxyphenoxy)-2,3-dihydro-1H-benzo[d]imidazol-5-yl)benzenesulfonamide 2,2,2-trifluoroacetate]
100 to 1000 | COc1ccc(S(=O)(=O)Nc2cc3c(cc2Oc2cccc(OCc4ccccn4)c2)n(C)c(=O)n3C)cc1OC [Example 29, N-(1,3-dimethyl-2-oxo-6-(3-(pyridin-2-ylmethoxy)phenoxy)-2,3-dihydro-1H-benzo[d]imidazol-5-yl)-3,4-dimethoxybenzenesulfonamide]

SMILES | IC50 [nM]
CCCOc1cc(OCCCCN2CCOCC2)cc(Oc2cc3c(cc2NS(=O)(=O)c2ccc(OC)c(OC)c2)n(C)c(=O)n3C)c1 [Example 246, N-(1,3-dimethyl-6-(3-(4-morpholinobutoxy)-5-propoxyphenoxy)-2-oxo-2,3-dihydro-1H-benzo[d]imidazol-5-yl)-3,4-dimethoxybenzenesulfonamide 2,2,2-trifluoroacetate] | 10 to 100
CCc1cc(OCC(C)C)cc(Oc2cc3c(cc2NS(=O)(=O)c2cn(C)cn2)n(C)c(=O)n3C)c1 [Example 226, N-(6-(3-ethyl-5-isobutoxyphenoxy)-1,3-dimethyl-2-oxo-2,3-dihydro-1H-benzo[d]imidazol-5-yl)-1-methyl-1H-imidazole-4-sulfonamide] | 10 to 100
